Reference: paper PMC7844276, “Multi-functionality of a tryptophan residue conserved in substrate-binding groove of GH19 chitinases” (Scientific Reports, 2021)

Key:
Assay type in all cases: binding
[1] = target: T1, BcChi-A (Gemmabryum coronatum, UniProt A9ZSX9); assay: 1H-15N HSQC NMR titration, Asn20 chemical shift; settings: 50 mM sodium acetate pH 5.0, 90% H2O/10% D2O, 300 K; 0.2 mM 15N protein
T1 construct: gene bcchiA; recombinant, pET-22b in E. coli BL21(DE3); purified from cell lysate by acid treatment, Q-Sepharose, Sephacryl S-100; no tag mentioned; 15N-labelled for NMR; catalytic domain, loopless GH19
Source text: (§1) 1H-15N HSQC NMR titration, Asn20 chemical shift on BcChi-A

[2] = target: T2, BcChi-A (Gemmabryum coronatum, UniProt A9ZSX9, W126A); assay: 1H-15N HSQC NMR titration, Asn20 chemical shift; settings: 50 mM sodium acetate pH 5.0, 90% H2O/10% D2O, 300 K; 0.2 mM 15N protein
T2 construct: gene bcchiA; recombinant, pET-22b in E. coli BL21(DE3); purified from cell lysate by acid treatment, Q-Sepharose, Sephacryl S-100; no tag mentioned; 15N-labelled for NMR; catalytic domain, loopless GH19
Source text: as §1

[3] = target: T3, BcChi-A (Gemmabryum coronatum, UniProt A9ZSX9, W126F); assay: 1H-15N HSQC NMR titration, Asn20 chemical shift; settings: 50 mM sodium acetate pH 5.0, 90% H2O/10% D2O, 300 K; 0.2 mM 15N protein
T3 construct: gene bcchiA; recombinant, pET-22b in E. coli BL21(DE3); purified from cell lysate by acid treatment, Q-Sepharose, Sephacryl S-100; no tag mentioned; 15N-labelled for NMR; catalytic domain, loopless GH19
Source text: as §1

[4] = target: T4, BcChi-A (Gemmabryum coronatum, UniProt A9ZSX9, E84Q); assay: 1H-15N HSQC NMR titration, Asn20 bound-state intensity (slow exchange); settings: 50 mM sodium acetate pH 5.0, 90% H2O/10% D2O, 300 K; 0.2 mM 15N protein; catalytically inactive mutant
T4 construct: gene bcchiA; recombinant, pET-22b in E. coli BL21(DE3); purified from cell lysate by acid treatment, Q-Sepharose, Sephacryl S-100; no tag mentioned; 15N-labelled for NMR; catalytic domain, loopless GH19
Source text: (§2) 1H-15N HSQC NMR titration, Asn20 bound-state intensity (slow exchange) on BcChi-A

[5] = target: T5, BcChi-A (Gemmabryum coronatum, UniProt A9ZSX9, E84Q/W126A); assay: as above; settings: 50 mM sodium acetate pH 5.0, 90% H2O/10% D2O, 300 K; 0.2 mM 15N protein; catalytically inactive mutant
T5 construct: gene bcchiA; recombinant, pET-22b in E. coli BL21(DE3); purified from cell lysate by acid treatment, Q-Sepharose, Sephacryl S-100; no tag mentioned; 15N-labelled for NMR; catalytic domain, loopless GH19
Source text: as §2

[6] = target: T6, BcChi-A (Gemmabryum coronatum, UniProt A9ZSX9, E84Q/W126F); assay: as above; settings: 50 mM sodium acetate pH 5.0, 90% H2O/10% D2O, 300 K; 0.2 mM 15N protein; catalytically inactive mutant
T6 construct: gene bcchiA; recombinant, pET-22b in E. coli BL21(DE3); purified from cell lysate by acid treatment, Q-Sepharose, Sephacryl S-100; no tag mentioned; 15N-labelled for NMR; catalytic domain, loopless GH19
Source text: as §2

T1 sequence (A9ZSX9 entry or part of it): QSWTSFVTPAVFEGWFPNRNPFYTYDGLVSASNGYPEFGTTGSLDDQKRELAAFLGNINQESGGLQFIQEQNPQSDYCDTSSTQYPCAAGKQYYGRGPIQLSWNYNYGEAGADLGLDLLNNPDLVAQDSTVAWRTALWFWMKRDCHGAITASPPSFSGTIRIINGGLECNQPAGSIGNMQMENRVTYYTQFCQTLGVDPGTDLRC
T3 sequence (A9ZSX9 entry or part of it W126F): as the sequence (A9ZSX9 entry or part of it) above, with W103F counted along it
T4 sequence (A9ZSX9 entry or part of it E84Q): as the sequence (A9ZSX9 entry or part of it) above, with E61Q counted along it
T6 sequence (A9ZSX9 entry or part of it E84Q/W126F): as the sequence (A9ZSX9 entry or part of it) above, with E61Q, W103F counted along it
T5 sequence (A9ZSX9 entry or part of it E84Q/W126A): as the sequence (A9ZSX9 entry or part of it) above, with E61Q, W103A counted along it
T2 sequence (A9ZSX9 entry or part of it W126A): as the sequence (A9ZSX9 entry or part of it) above, with W103A counted along it

Structure (SMILES)	Kd [1] [µM]	Kd [2] [µM]	Kd [3] [µM]	Kd [4] [µM]	Kd [5] [µM]	Kd [6] [µM]
CC(=O)N[C@H]1[C@H](O[C@H]2[C@H](O)[C@@H](NC(C)=O)C(O)O[C@@H]2CO)O[C@H](CO)[C@@H](O)[C@@H]1O (stereo partly drawn) [(GlcNAc)2]	4200	24000	22000	–	–	–
CC(=O)N[C@H]1[C@H](O[C@H]2[C@H](O)[C@@H](NC(C)=O)[C@H](O[C@H]3[C@H](O)[C@@H](NC(C)=O)C(O)O[C@@H]3CO)O[C@@H]2CO)O[C@H](CO)[C@@H](O[C@@H]2O[C@H](CO)[C@@H](O[C@@H]3O[C@H](CO)[C@@H](O[C@@H]4O[C@H](CO)[C@@H](O)[C@H](O)[C@H]4NC(C)=O)[C@H](O)[C@H]3NC(C)=O)[C@H](O)[C@H]2NC(C)=O)[C@@H]1O (stereo partly drawn) [(GlcNAc)6]	–	–	–	14	200	1000
